# Laboratory results reported in PubChem BioAssay (NCI).
# Values joined by “and” are separate entries in the source; they are usually repeats but may differ in a detail not shown here. Identical values can stand only once.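 Each compound was tested at five concentrations against cells in 96-well plates for 48 hours. Abbreviation: GI50, concentration required for 50% inhibition of growth. TGI denotes the concentration required for complete inhibition of growth.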
# Legend:
# Test in all cases: DTP human tumour cell line panel, 48 h
# [1] = system: A549 NSCLC
# [2] = system: ACHN renal
# [3] = system: M14 melanoma
# [4] = system: MALME-3M melanoma
# [5] = system: NCI-H522 lung
# [6] = system: OVCAR-4 ovarian
# [7] = system: OVCAR-8 ovarian
# [8] = system: RPMI-8226 leukemia
# [9] = system: SF-295 CNS
# [10] = system: SK-MEL-28 melanoma
# [11] = system: SNB-19 CNS
# [12] = system: UO-31 renal
# [13] = system: NCI-H460 lung
# [14] = system: OVCAR-3 ovarian
# [15] = system: OVCAR-5 ovarian
# [16] = system: SK-MEL-2 melanoma
# [17] = system: TK-10 renal
# [18] = system: NCI/ADR-RES ovarian
SMILES,TGI [1],TGI [2],TGI [3],TGI [4],TGI [5],TGI [6],TGI [7],TGI [8],TGI [9],TGI [10],TGI [11],TGI [12],TGI [13],TGI [14],TGI [15],TGI [16],TGI [17],GI50 [13],TGI [18]
CCn1c2ccccc2c2ccc3c(c21)C(=O)c1ccccc1C3=O,> 100 µM,> 100 µM,> 100 µM,> 100 µM,> 100 µM,> 100 µM,> 100 µM,> 100 µM,> 100 µM,> 100 µM,> 100 µM,> 100 µM,–,–,–,–,–,–,–
C=CN1C(=O)OC[C@@H]1c1ccccc1,> 100 µM,> 100 µM,> 100 µM,> 100 µM,> 100 µM,> 100 µM,> 100 µM,> 100 µM,> 100 µM,> 100 µM,> 100 µM,> 100 µM,> 100 µM,> 100 µM,> 100 µM,> 100 µM,> 100 µM,–,–
C=CCN(N=O)C(=O)N(CCCC(NC(C)=O)C(=O)NCc1ccccc1)Cc1ccccc1 (stereo unspecified),> 100 µM,> 100 µM,> 100 µM,> 100 µM,84.8 µM,> 100 µM,> 100 µM,59.4 µM,> 100 µM,> 100 µM,> 100 µM,> 100 µM,> 100 µM,> 100 µM,> 100 µM,> 100 µM,> 100 µM,–,–
O=C(O)C12C3C4C1C1C2C3C1(Br)C41OCCO1 (stereo unspecified),> 100 µM,> 100 µM,–,> 100 µM,> 100 µM,–,> 100 µM,> 100 µM,> 100 µM,> 100 µM,> 100 µM,> 100 µM,> 100 µM,> 100 µM,> 100 µM,> 100 µM,> 100 µM,–,–
O/N=C/c1cc2c(cc1Br)OCO2,> 100 µM,> 100 µM,> 100 µM,> 100 µM,> 100 µM,> 100 µM,> 100 µM,> 100 µM,> 100 µM,–,> 100 µM,> 100 µM,> 100 µM,> 100 µM,> 100 µM,> 100 µM,> 100 µM,–,–
COP(=O)(OC)C(=NCc1ccccc1)NNc1ccc([N+](=O)[O-])cc1,> 100 µM,> 100 µM,53.7 µM,> 100 µM,38.6 µM,90.7 µM,> 100 µM,57.1 µM,67.4 µM,> 100 µM,–,–,79.3 µM,> 100 µM,> 100 µM,52.9 µM,> 100 µM,–,–
COc1c(OC)c(N)c2cc(C)c(=O)c(C)cc2c1N,> 100 µM,> 100 µM,> 100 µM,> 100 µM,> 100 µM,> 100 µM,> 100 µM,> 100 µM,> 100 µM,–,> 100 µM,> 100 µM,> 100 µM,> 100 µM,> 100 µM,> 100 µM,> 100 µM,–,–
COc1cc(C2c3cc4c(cc3[C@@H](NCCN3CCCCC3)C3COC(=O)[C@H]23)OCO4)cc(OC)c1O (stereo partly specified),1.3 µM,–,1.44 µM and 2 µM,2.59 µM and 3.44 µM,–,> 100 µM,2.45 µM and 3.41 µM,5.69 µM and 3.93 µM,0.881 µM,7.22 µM and 11.4 µM,> 100 µM and 36.7 µM,1.8 µM and 1.99 µM,1.03 µM and 0.914 µM,3.52 µM and 3.72 µM,5.06 µM and 5.73 µM,4.92 µM and 4.65 µM,5.34 µM and 5.88 µM,0.0285 µM,–
COc1ccc(N(C)Sc2ccccc2)cc1,> 100 µM,–,> 100 µM,> 100 µM,> 100 µM,–,> 100 µM,> 100 µM,> 100 µM,> 100 µM,> 100 µM,> 100 µM,> 100 µM,> 100 µM,> 100 µM,> 100 µM,> 100 µM,–,–
O=c1[nH]c(=O)n(COCCO)c2ccc(Br)cc12,> 100 µM,> 100 µM,> 100 µM,–,–,> 100 µM,> 100 µM,–,> 100 µM,> 100 µM,> 100 µM,> 100 µM,> 100 µM,> 100 µM,> 100 µM,> 100 µM,> 100 µM,–,> 100 µM
O=C(Cc1ccccc1)NN1C(=O)C(Cl)C1c1ccc([N+](=O)[O-])cc1 (stereo unspecified),> 100 µM,> 100 µM,> 100 µM,> 100 µM,76.3 µM,> 100 µM,> 100 µM,> 100 µM,> 100 µM,> 100 µM,> 100 µM,> 100 µM,> 100 µM,> 100 µM,> 100 µM,> 100 µM,> 100 µM,–,–
CN(C(=O)c1ccc(Cl)cc1)C(=S)N1CCN(c2ccccn2)CC1,> 100 µM,> 100 µM,> 100 µM,> 100 µM,> 100 µM,> 100 µM,> 100 µM,> 100 µM,> 100 µM,> 100 µM,> 100 µM,> 100 µM,> 100 µM,> 100 µM,> 100 µM,> 100 µM,> 100 µM,–,–
O=C1NCCCC12CCCNC2=O,> 100 µM,> 100 µM,> 100 µM,> 100 µM,> 100 µM,–,> 100 µM,> 100 µM,> 100 µM,> 100 µM,> 100 µM,> 100 µM,> 100 µM,> 100 µM,–,–,–,–,–
